# Key:
# MOOVA (Monochoria) = test: Preemergence weed control under flooded paddy conditions; format: in vivo, Monochoria vaginalis; conditions: rated 3-4 weeks after treatment
# In short: (§1)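 Using flooded silt loam (water 1.5 to 3 cm deep), seeds sown in the top 0.5 cm were exposed preemergence to compound pipetted into the flood at about 0.0313 to 0.500 kg/ha. Effects were scored 0-9 by eye three to four weeks later.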
# SETVI (Foxtail, Green) = test: Preemergence herbicidal evaluation; format: in vivo, Setaria viridis; conditions: rated 4-5 weeks after treatment
# In short: (§2)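 Scores (0–9) reflect visual comparison with control plants for stand, vigor, malformation, size and chlorosis. Compound was applied to the soil after sowing, before emergence, as an aqueous acetone spray (about 0.0156–0.500 kg/ha), and cups were kept in a greenhouse for 4–5 weeks.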
# [1] = tested on: SAGPY (Arrowhead (Pygmaea)); test: Postemergence weed control under flooded paddy conditions; format: in vivo, Sagittaria pygmaea; conditions: postemergence weeds, 3-4 weeks after treatment
# In short: (§3)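 With weeds 3 to 5 cm tall and rice at the 1.5 to 2.5 leaf stage, containers were flooded and water held 1.5 to 3 cm above soil. Compounds in 50/50 v/v aqueous/acetone went into the flood water at about 0.0313 to 0.500 kg/ha a.i. Effects were visually rated 0–9 against controls after three to four weeks in the greenhouse.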
# CASOB (Sicklepod) = test: Postemergence herbicidal evaluation; format: in vivo, Cassia obtusifolia; conditions: postemergence
# In short: (§4)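 Each compound, dispersed in an acetone/water mix (50/50) carrying 0.5% TWEEN 20, is nozzle-sprayed at 40 psi on approximately two-week-old seedlings at about 0.0156–0.500 kg/ha. Plants are assessed 4–5 weeks afterward on a 0–9 scale relative to control; duplicate tests are averaged.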
# AMBEL (Ragweed, Common) = test: Postemergence herbicidal evaluation; format: in vivo, Ambrosia artemisifolia; conditions: postemergence
# In short: as §4
# ORYSAT (Rice, Tebonnet) = test: Preemergence herbicidal evaluation; format: in vivo, Oryza sativa, (L.) Tebonnet; conditions: rated 4-5 weeks after treatment
# In short: as §2
# GALAP (Galium) [2] = test: Postemergence herbicidal evaluation; format: in vivo, Galium aparine; conditions: postemergence
# In short: as §4
# GALAP (Galium) [3] = test: Preemergence herbicidal evaluation; format: in vivo, Galium aparine; conditions: rated 4-5 weeks after treatment
# In short: as §2
# [4] = tested on: ECHORC (Watergrass (Calif.)); test: Postemergence weed control under flooded paddy conditions; format: in vivo, Echinochloa oryzoides; conditions: postemergence weeds, 3-4 weeks after treatment
# In short: as §3
# [5] = tested on: TRZAWR (Wheat, Winter, cv Riband); test: Postemergence herbicidal evaluation; format: in vivo, Triticum aestivum; conditions: postemergence
# In short: as §4
# [6] = tested on: SAGPY (Arrowhead (Pygmaea)); test: Preemergence weed control under flooded paddy conditions; format: in vivo, Sagittaria pygmaea; conditions: rated 3-4 weeks after treatment
# In short: as §1
# [7] = tested on: ECHORC (Watergrass (Calif.)); test: as above; format: in vivo, Echinochloa oryzoides; conditions: rated 3-4 weeks after treatment
# In short: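 Seeds or propagules sown in silt loam kept flooded 1.5-3 cm; compounds in 50/50 acetone/water pipetted into flood water at about 0.0313 to 0.500 kg/ha. Greenhouse; visual 0-9 rating versus untreated control 3-4 weeks after treatment.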
# [8] = tested on: GLXMAW (Soybean, Williams); test: Postemergence herbicidal evaluation; format: in vivo, Glycine max, (L.) Merr. cv Williams; conditions: postemergence
# In short: as §4
compound,measurement,setting,value
Cn1c(C(F)(F)F)cc(=O)n(-c2cc(N=C3SCC(=O)N3Cc3ccccc3)c(Cl)cc2F)c1=O [Compound 26],Herbicidal rating MOOVA,MOOVA (Monochoria); 0.0313 kg/ha,9.0
same,Herbicidal rating MOOVA,MOOVA (Monochoria); 0.0625 kg/ha,9.0
same,Herbicidal rating MOOVA,MOOVA (Monochoria); 0.1250 kg/ha,9.0
same,Herbicidal rating MOOVA,MOOVA (Monochoria); 0.2500 kg/ha,9.0
same,Preemergence herbicidal rating SETVI,"SETVI (Foxtail, Green); rate 0.0156 kg/ha",0.0
same,Preemergence herbicidal rating SETVI,"SETVI (Foxtail, Green); rate 0.0313 kg/ha",0.0
same,Preemergence herbicidal rating SETVI,"SETVI (Foxtail, Green); rate 0.0625 kg/ha",0.0
same,Preemergence herbicidal rating SETVI,"SETVI (Foxtail, Green); rate 0.1250 kg/ha",5.0
same,Preemergence herbicidal rating SETVI,"SETVI (Foxtail, Green); rate 0.2500 kg/ha",9.0
same,Herbicidal rating SAGPY,[1]; rate 0.0313 kg/ha,0.0
same,Herbicidal rating SAGPY,[1]; rate 0.0625 kg/ha,4.0
same,Herbicidal rating SAGPY,[1]; rate 0.1250 kg/ha,5.0
same,Herbicidal rating SAGPY,[1]; rate 0.2500 kg/ha,7.0
same,CASOB herbicidal rating,CASOB (Sicklepod); rate 0.0156 kg/ha,0.0
same,CASOB herbicidal rating,CASOB (Sicklepod); rate 0.0313 kg/ha,0.0
same,CASOB herbicidal rating,CASOB (Sicklepod); rate 0.0625 kg/ha,0.0
same,AMBEL herbicidal rating,"AMBEL (Ragweed, Common); rate 0.0156 kg/ha",9.0
same,AMBEL herbicidal rating,"AMBEL (Ragweed, Common); rate 0.0313 kg/ha",8.0
same,AMBEL herbicidal rating,"AMBEL (Ragweed, Common); rate 0.0625 kg/ha",9.0
same,Preemergence herbicidal rating ORYSAT,"ORYSAT (Rice, Tebonnet); rate 0.0156 kg/ha",0.0
same,Preemergence herbicidal rating ORYSAT,"ORYSAT (Rice, Tebonnet); rate 0.0313 kg/ha",0.0
same,Preemergence herbicidal rating ORYSAT,"ORYSAT (Rice, Tebonnet); rate 0.0625 kg/ha",0.0
same,Preemergence herbicidal rating ORYSAT,"ORYSAT (Rice, Tebonnet); rate 0.1250 kg/ha",0.0
same,Preemergence herbicidal rating ORYSAT,"ORYSAT (Rice, Tebonnet); rate 0.2500 kg/ha",0.0
same,GALAP herbicidal rating,GALAP (Galium) [2]; rate 0.0156 kg/ha,3.0
same,GALAP herbicidal rating,GALAP (Galium) [2]; rate 0.0313 kg/ha,5.0
same,GALAP herbicidal rating,GALAP (Galium) [2]; rate 0.0625 kg/ha,5.0
same,Preemergence herbicidal rating GALAP,GALAP (Galium) [3]; rate 0.0156 kg/ha,0.0
same,Preemergence herbicidal rating GALAP,GALAP (Galium) [3]; rate 0.0313 kg/ha,0.0
same,Preemergence herbicidal rating GALAP,GALAP (Galium) [3]; rate 0.0625 kg/ha,0.0
same,Preemergence herbicidal rating GALAP,GALAP (Galium) [3]; rate 0.1250 kg/ha,9.0
same,Preemergence herbicidal rating GALAP,GALAP (Galium) [3]; rate 0.2500 kg/ha,9.0
same,Herbicidal rating ECHORC,[4]; rate 0.0313 kg/ha,7.0
same,Herbicidal rating ECHORC,[4]; rate 0.0625 kg/ha,9.0
same,Herbicidal rating ECHORC,[4]; rate 0.1250 kg/ha,9.0
same,Herbicidal rating ECHORC,[4]; rate 0.2500 kg/ha,9.0
same,TRZAWR herbicidal rating,[5]; rate 0.0156 kg/ha,1.5
same,TRZAWR herbicidal rating,[5]; rate 0.0313 kg/ha,2.5
same,TRZAWR herbicidal rating,[5]; rate 0.0625 kg/ha,3.5
same,Herbicidal rating SAGPY,[6]; 0.0313 kg/ha,0.0
same,Herbicidal rating SAGPY,[6]; 0.0625 kg/ha,4.0
same,Herbicidal rating SAGPY,[6]; 0.1250 kg/ha,5.0
same,Herbicidal rating SAGPY,[6]; 0.2500 kg/ha,7.0
same,Herbicidal rating ECHORC,[7]; 0.0313 kg/ha,7.0
same,Herbicidal rating ECHORC,[7]; 0.0625 kg/ha,9.0
same,Herbicidal rating ECHORC,[7]; 0.1250 kg/ha,9.0
same,Herbicidal rating ECHORC,[7]; 0.2500 kg/ha,9.0
same,GLXMAW herbicidal rating,[8]; rate 0.0156 kg/ha,5.5
same,GLXMAW herbicidal rating,[8]; rate 0.0313 kg/ha,5.5
same,GLXMAW herbicidal rating,[8]; rate 0.0625 kg/ha,6.0

# Reference: US20020137929A1, “1 - (3-heterocyclylphenyl) isothiourea, -isourea, -guanidine and -amidine herbicidal agents” (Intellectual Property Department, BASF Aktiengesellschaft, priority 1998, published 2002)
